Test results reported in patent publication US9302996B2, “Continuous arycyclic compound” (MITSUBISHI TANABE PHARMA CORPORATION, priority 2010, dated 2016).
Like-named read-outs stand apart in the source and are kept apart here. Marks after values point to notes of the source that are not given here.

Tests used:
Type in all cases: in vivo
KK-Ay mice = assay: Weight gain-inhibiting action, hypoglycemic effect, insulin in blood plasma lowering action in KK-Ay mice; conditions: male KK-Ay mice, high fat diet, 2 weeks; for inhibition in vivo at 30 mg/kg: Mus musculus, 336 h, 30 mg/kg/day oral
Protocol: To 8 weeks-old male KK-Ay mice were provided high fat diet (Oriental Yeast Co., Ltd, 60 cal % fat), and Test compound suspended in 0.2% carboxymethylcellulose solution was orally administered once a day. Oral administration was continued for 2 weeks, and a weight gain-inhibiting rate of the Test compound was calculated by using a weight gain amount of the solvent control group during the test period as 100%. After final administration, the mice were fasted overnight, and blood was collected from tail vein. Measurement of a blood-sugar level was carried out by using glucose Cα Test Wako (Wako Pure Chemical Industries, Ltd.), and measurement of insulin in blood plasma was carried out by using a mouse insulin measurement kit (Morinaga Institute of Biological Science, Inc.).

ICR mice = assay: Triglyceride (TG) in blood plasma increase-inhibiting action due to lipid administration; conditions: Mus musculus; male ICR mice, 5 mg/kg oral, lipid (Intralipos 20%) after 30 minutes, plasma TG 2 hours after lipid; read-out: Inhibiting rate of TG-increase in blood plasma (5 mg/kg)
Protocol: 6 to 9 weeks-old male ICR mice were fasted overnight, and Test compound suspended in 0.2% carboxymethyl cellulose solution was orally administered to the mice. A lipid (Intralipos 20%, OTSUKA PHARMACEUTICAL CO., LTD., 10 mL/kg) was orally administered after 30 minutes. Blood was collected from tail vein immediately before the lipid administration, and after 2 hours from the same to obtain blood plasma. Measurement of TG in blood plasma was carried out by using a triglyceride E Test Wako (Wako Pure Chemical Industries, Ltd.), and an increased value of TG in blood plasma by administration of the lipid was calculated. An increased value of TG in blood plasma in a solvent control group was used as a control, and an inhibiting rate in increase of TG in blood plasma in the Test compound administered group was calculated.

C57BL/6J mice = assay: Antifeeding activity (high fat diet intake up to 4 hours); conditions: Mus musculus, male C57BL/6J mice, 5 mg/kg oral, food ingested up to 4 hours, read-out: Antifeeding rate (5 mg/kg)
Protocol: 7 to 10 weeks-old male C57BL/6J mice were fasted overnight, and the test compound suspended in 0.2% carboxymethylcellulose solution was orally administered. Immediately after the administration, high fat diet (Oriental Yeast Co., Ltd, 60 cal % fat) was provided and freely fed. An amount of food ingested up to 4 hours was measured, and a lowering rate (an antifeeding rate) of the amount of food ingested in the Test compound administered group was calculated as compared to that of the solvent control group as a control.

[1] = read-out: Hypoglycemic action (30 mg/kg/day)
[2] = read-out: Insulin in blood plasma-lowering action (30 mg/kg/day)
[3] = administration dose of 1 mg/kg/day oral

SMILES | inhibition in vivo at 5 mg/kg (ICR mice) | inhibition in vivo at 5 mg/kg (C57BL/6J mice) | further results
CC(C)(COc1ccc(-c2ccc(-c3ncc(C(C)(C)C(F)(F)F)[nH]3)cn2)cc1)C(=O)O [Example 2-3), sodium 2,2-dimethyl-3-(4-{5-[5-(2,2,2-trifluoro-1,1-dimethylethyl)-1H-imidazol-2-yl]pyridin-2-yl}phenoxy)propanoate] | – | – | inhibition in vivo at 30 mg/kg (KK-Ay mice; [1]): 64%; inhibition in vivo at 30 mg/kg (KK-Ay mice; [2]): 62%; inhibition in vivo at 30 mg/kg (KK-Ay mice; read-out: Weight gain-inhibiting action (30 mg/kg/day)): 53%
CC(C)(COc1ccc(-c2ccc(-c3ncc(C(F)(F)F)[nH]3)cn2)cn1)C(=O)O [Example 13-3), 2,2-dimethyl-3-[[5-[5-[4-(trifluoromethyl)-1H-imidazol-2-yl]-2-pyridyl]-2-pyridyl]oxy]propanoic acid] | 51% | 60% | –
CCc1cc(OCC(C)(C)C(=O)O)ccc1-c1ccc(-c2ncc(C(F)(F)F)[nH]2)cn1 [Example 85-4), 3-(3-ethyl-4-{5-[5-(trifluoromethyl)-1H-imidazol-2-yl]pyridin-2-yl}phenoxy)-2,2-dimethylpropanoic acid] | 69% | 70% | –
Cc1cc(OCC(C)(C)C(=O)O)ncc1-c1ccc(-c2ncc(C(F)(F)C(F)(F)F)[nH]2)c(F)c1 [Example 124] | 98% | 75% | –
Cc1cc(OCC2(C(=O)O)CC2)ncc1-c1ccc(-c2ncc(C(F)(F)F)[nH]2)c(F)c1 [Example 133] | 75% | 83% | –
Cc1cc(OCC(C)(C)C(=O)O)ncc1-c1ccc(-c2ncc(CC3CC3)[nH]2)c(C)c1 [Example 109] | 50% | 41% | –
COc1cc(OCC(C)(C)C(=O)O)ccc1-c1ccc(-c2ncc(C(F)(F)F)[nH]2)cn1 [Example 86-3), 3-[3-methoxy-4-[5-[5-(trifluoromethyl)-1H-imidazol-2-yl]-2-pyridyl]phenoxy]-2,2-dimethylpropanoic acid] | 68% | 21% | –
CC(C)(COc1ccc(-c2ccc(-c3ncc(C(F)(F)F)[nH]3)cn2)cc1)C(=O)O [Example 1-3), 2,2-dimethyl-3-(4-{5-[5-(trifluoromethyl)-1H-imidazol-2-yl]pyridin-2-yl}phenoxy)propanoic acid] | – | – | inhibition in vivo at 30 mg/kg (KK-Ay mice; [1]): 43%; inhibition in vivo at 30 mg/kg (KK-Ay mice; [2]): 58%
CCC(CC)(COc1cc(C)c(-c2ccc(-c3ncc(C(F)(F)F)[nH]3)c(F)c2)cn1)C(=O)O [Example 134] | 84% | 74% | –
CC(C)(COc1ccc(-c2ccc(-c3nc(C(F)(F)F)c[nH]3)cc2)cc1)C(=O)O [Example 93-3), 3-({4′-[5-(trifluoromethyl)-1H-imidazol-2-yl]biphenyl-4-yl}oxy)-2,2-dimethylpropanoic acid] | 67% | 68% | –
CC(C)c1cnc(-c2ccc(-c3ccc(OCC(C)(C)C(=O)O)cc3)nc2)[nH]1 [Example 28] | 59% | 54% | –
Cc1cc(OCC(C)(C)C(=O)O)ccc1-c1ccc(-c2ncc(C(F)(F)F)[nH]2)cn1 [Example 9] | 75% | 76% | –
CC(C)(COc1ccc(-c2ccc(-c3ncc(C(F)(F)F)[nH]3)nc2)cc1)C(=O)O [Example 68] | 64% | 63% | –
CCCc1cnc(-c2ccc(-c3ccc(OCC(C)(C)C(=O)O)cc3)nc2)[nH]1 [Example 32] | 71% | 42% | –
Cc1cc(OCC(C)(C)C(=O)O)ncc1-c1ccc(-c2ncc(CC3CC3)[nH]2)cc1 [Example 108] | 52% | 62% | –
Cc1cc(OCC(C)(C)C(=O)O)ncc1-c1ccc(-c2ncc(CC(C)C)[nH]2)cc1 [Example 104] | 67% | 62% | –
CC(C)(COc1ccc(-c2ccc(-c3ncc(CC(F)F)[nH]3)cn2)cc1)C(=O)O [Example 12] | 51% | 40% | –

SMILES | inhibition in vivo at 5 mg/kg (ICR mice) | inhibition in vivo at 5 mg/kg (C57BL/6J mice) | further results
CC(C)(COc1ccc(-c2ccc(-c3ncc(C(F)(F)F)[nH]3)cn2)cc1)CC(=O)O [Example 65] | 75% | 79% | –
CC(C)(COc1ncc(-c2ccc(-c3ncc(C(F)(F)F)[nH]3)cc2)cn1)C(=O)O [Example 67] | 70% | 58% | –
Cc1cc(OCC2(C(=O)O)CCC2)ncc1-c1ccc(-c2ncc(C(F)(F)F)[nH]2)c(F)c1 [Example 98-3), 1-{[(5-{3-fluoro-4-[5-(trifluoromethyl)-1H-imidazol-2-yl]phenyl}-4-methylpyridin-2-yl)oxy]methyl}cyclobutanecarboxylic acid] | 105% | 89% | –
CC(C)(COc1ccc(-c2ccc(-c3ncc(C4CCC4)[nH]3)cn2)cc1)C(=O)O [Example 55-2), 3-[4-[5-(5-cyclobutyl-1H-imidazol-2-yl)-2-pyridyl]phenoxy]-2,2-dimethylpropanoic acid] | – | 39% | –
CCC(CC)c1cnc(-c2ccc(-c3ccc(OCC(C)(C)C(=O)O)cc3)nc2)[nH]1 [Example 29] | 52% | 28% | –
CC(C)(COc1ccc(-c2ccc(-c3ncc(C(C)(C)C(F)(F)F)[nH]3)cn2)cc1)C(=O)O [Example 2-2), 2,2-dimethyl-3-(4-{5-[5-(2,2,2-trifluoro-1,1-dimethylethyl)-1H-imidazol-2-yl]pyridin-2-yl}phenoxy)propanoic acid] | 76% | 64% | –
O=C(O)C1(COc2ccc(-c3ccc(-c4ncc(C(F)(F)F)[nH]4)cn3)cc2)CCCC1 [Example 20] | 74% | 70% | –
CC(C)(COc1ncc(-c2ccc(-c3ncc(C(C)(C)C(F)(F)F)[nH]3)cc2)cc1F)C(=O)O [Example 143] | 55% | 4% | –
Cc1cc(OCC2(C(=O)O)CCC2)ncc1-c1ccc(-c2ncc(C(F)(F)F)[nH]2)nc1 [Example 97-5), 1-[({4-methyl-6′-[5-(trifluoromethyl)-1H-imidazol-2-yl]-3,3′-bipyridin-6-yl}oxy)methyl]cyclobutanecarboxylic acid] | 102% | 92% | –
CC(C)(COc1ccc(-c2ccc(-c3ncc(C4(C(F)(F)F)CCC4)[nH]3)cn2)cc1)C(=O)O [Example 88-3), sodium 2,2-dimethyl-3-[4-(5-{5-[1-(trifluoromethyl)cyclobutyl]-1H-imidazol-2-yl}pyridin-2-yl)phenoxy)propanoate] | 65% | 55% | –
CCc1cnc(-c2ccc(-c3ccc(OCC(C)(C)C(=O)O)cc3)nc2)[nH]1 [Example 58-2), 3-[4-[5-(5-ethyl-1H-imidazol-2-yl)-2-pyridyl]phenoxy]-2,2-dimethylpropanoic acid] | 64% | 65% | –
CC(C)(COc1ncc(-c2ccc(-c3ncc(C(F)(F)F)[nH]3)c(Cl)c2)cc1F)C(=O)O [Example 82] | 47% | 42% | –
Cc1cc(OCC2(C(=O)O)CCC2)ncc1-c1cnc(-c2ncc(C(F)(F)F)[nH]2)c(Cl)c1 [Example 99-6), 1-[({5′-chloro-4-methyl-6′-[5-(trifluoromethyl)-1H-imidazol-2-yl]-3,3′-bipyridin-6-yl}oxy)methyl]cyclobutanecarboxylic acid] | 95% | 85% | –
Cc1cc(OCC(C)(C)C(=O)O)ncc1-c1ccc(-c2ncc(CC3CC3)[nH]2)c(Cl)c1 [Example 121] | 53% | 57% | –
CC(C)(COc1cnc(-c2ccc(-c3ncc(C(F)(F)F)[nH]3)c(F)c2)cn1)C(=O)O [Example 91] | 51% | 51% | –
CC(C)(COc1ccc(-c2ccc(-c3nc(C(F)(F)F)c[nH]3)cn2)cc1)C(=O)O [Example 94-3), 2,2-dimethyl-3-[4-[5-[4-(trifluoromethyl)-1H-imidazol-2-yl]-2-pyridyl]phenoxy]propanoic acid] | – | – | Hypoglycemic action (KK-Ay mice; [3]): 42%*; Insulin in blood plasma-lowering action (KK-Ay mice; [3]): 29%*
